Assay results taken from patent US20090170897A1, “Method of Treating Neuropathic Pain” (Pfizer, Inc., priority 2004, published 2009).

Assays:
[1] = tested on: Chronic Constriction Injury (CCI) rat model of neuropathic pain; settings: literature; cited from earlier work
[2] = tested on: Chronic Constriction Injury (CCI) rat model of neuropathic pain; settings: literature; cited from earlier work; remark: listed apart in the source
[3] = tested on: Streptozocin (STZ)-induced diabetes neuropathy in the rat; settings: literature; cited from earlier work
[4] = tested on: Streptozocin (STZ)-induced diabetes neuropathy in the rat; settings: literature; cited from earlier work; remark: listed apart in the source
CCI-induced pain in rats = settings: literature; cited from earlier work
[5] = tested on: Streptozocin (STZ)-induced diabetes neuropathy in the rat; test: STZ-induced static allodynia (von Frey hairs, PWT); type: in vivo; settings: compound 25 mg/kg PO; gabapentin 100 mg/kg PO (positive control)
Description: (§1) Male Sprague Dawley rats weighing 150-400 g obtained from Charles River (Manston, Kent, UK.) were housed in groups of 3. All animals were kept under a 12 h light/dark cycle (lights on at 07 h 00 min) with food and water ad libitum. All experiments were carried out by an observer blind to the treatments and in accordance with the Home Office Animals (Scientific Procedures) Act 1986.
(§2) Diabetes was induced by a single intraperitoneal injection of streptozotocin (50 mg/kg) freshly dissolved in 0.9% sterile saline. Streptozotocin injection induces a reproducible mechanical allodynia within 3 weeks, lasting for at least 7 weeks (Chen and Pan, (Chen S R and Pan H L. Hypersensitivity of Spinothalamic Tract Neurons Associated With Diabetic Neuropathic Pain in Rats. J Neurophysiol 87: 2726-2733, 2002).
Animals were habituated to wire bottom test cages prior to the assessment of allodynia. Static allodynia was evaluated by application of von Frey hairs (Stoelting, Wood Dale, Ill., USA.) in ascending order of force (0.6, 1, 1.4, 2, 4, 6, 8, 10, 15 and 26 grams) to the plantar surface of hind paws. Each von Frey hair was applied to the paw for a maximum of 6 sec, or until a withdrawal response occurred. Once a withdrawal response to a von Frey hair was established, the paw was re-tested, starting with the filament below the one that produced a withdrawal, and subsequently with the remaining filaments in descending force sequence until no withdrawal occurred. The highest force of 26 g lifted the paw as well as eliciting a response, thus represented the cut off point. Each animal had both hind paws tested in this manner. The lowest amount of force required to elicit a response was recorded as paw withdrawal threshold (PWT) in grams. Static allodynia was defined as present if animals responded to a stimulus of, or less than, 4 g, which is innocuous in naive rats (Field M J, Bramwell S, Hughes J, Singh L. Detection of static and dynamic components of mechanical allodynia in rat models of neuropathic pain: are they signalled by distinct primary sensory neurones? Pain, 1999; 83:303-11).
(§3) All the experiments were conducted blind. Static allodynia was expressed as median [LQ; UQ] and analysed by Mann Whitney U test. Dynamic allodynia and thermal hyperalgesia were expressed as arithmetic mean±SEM and analysed by ANOVA.

[6] = tested on: Streptozocin (STZ)-induced diabetes neuropathy in the rat; test: STZ-induced dynamic allodynia (cotton bud, PWL); type: in vivo; settings: compound 25 mg/kg PO; gabapentin 100 mg/kg PO (positive control)
Description: as §1, §2
Dynamic allodynia was assessed by lightly stroking the plantar surface of the hind paw with a cotton bud. To avoid recording general motor activity, care was taken to perform this procedure in fully habituated rats that were not active. At least two measurements were taken at each time point, the mean of which represented the paw withdrawal latency (PWL). […] A pain withdrawal response was often accompanied with repeated flinching or licking of the paw. Dynamic allodynia was considered to be present if animals responded to the cotton stimulus within 8 sec of commencing stroking (Field et al, 1999).
as §3

[7] = tested on: Carrageenan-induced thermal hyperalgesia (CITH) in the rat; test: Carrageenan-induced thermal hyperalgesia (CITH), rat plantar test; type: in vivo; settings: 3 mg/kg SC
Description: as §1
Thermal hyperalgesia was assessed using the rat plantar test (Ugo Basile, Comerio, Italy), according to a method modified by Hargreaves et al. (1988). Briefly, rats were habituated to the apparatus that consisted of three individual Perspex boxes on a glass table. A mobile radiant heat source was located under the table and focused onto the desired paw. Paw withdrawal latencies (PWLs) were recorded three times for both hind paws of each animal, the mean of which represented baseline for left and right hind paws. The apparatus was calibrated to give a PWL of approximately 10 s in naïve rats. To prevent tissue damage of the plantar zone, a 22.5 sec cut-off was observed. Lambda carrageenan was injected intraplantarly (100 μl, 20 mg/ml) the right hind paw and baseline recordings of PWT were taken 2 hr post administration.
as §3

CRTH2 receptor = molecular target: T1, CRTH2 receptor (Homo sapiens, UniProt Q9Y5Y4); test: calcium mobilization in cells that express CRTH2 receptor; type: cell-based; settings: absence of test compound, Indo-1 fluorescence; read-out: EC50 of increased [Ca2+]i
T1 construct: Flag peptide (behind a 'prolac' signal peptide) (N); expressed in transfected cells
T1 sequence (Q9Y5Y4 1-395): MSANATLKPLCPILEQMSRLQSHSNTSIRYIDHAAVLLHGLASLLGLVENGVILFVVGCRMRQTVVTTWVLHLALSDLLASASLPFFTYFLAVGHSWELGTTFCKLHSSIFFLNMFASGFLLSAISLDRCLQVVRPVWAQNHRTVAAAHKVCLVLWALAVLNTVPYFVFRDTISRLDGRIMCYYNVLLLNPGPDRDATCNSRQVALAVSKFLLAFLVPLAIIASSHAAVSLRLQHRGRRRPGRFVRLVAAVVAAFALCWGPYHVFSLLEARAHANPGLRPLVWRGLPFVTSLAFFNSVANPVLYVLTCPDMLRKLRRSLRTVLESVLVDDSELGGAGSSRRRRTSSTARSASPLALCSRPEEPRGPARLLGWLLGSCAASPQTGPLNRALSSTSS
Description: The ratio of fluorescence produced by the calcium-bound dye to that produce by the unbound dye is used to estimate the intracellular calcium concentration. In an example method cells that express CRTH2 receptor are collected, and resuspended in fresh media at ˜2×10^5/ml the day before performing the calcium flux assay. Cells are incubated at 37° C. for not longer than 20-30 minutes, and then spun down and resuspended in 50 ml fresh PTI buffer (Hank's Buffer, pH 7.2-7.4; 10 mM Hepes; 1.6 mM CaCl2) containing Indo-1 AM, pre-warmed to 37° C., at a concentration of 10 million per ml. Cells are excited, and fluorescence is measured using a fluorimeter (Photon Technology Corporation, International). After the readout has stabilized, the time axis is reset, and PGD2 is added at a specific time point (e.g., 20 seconds). After response, the following reagents are added to the cuvette, to release and chelate total calcium, in the following order: 20 μl of 18% Triton X-100, 20 μl of 3M Tris, pH 8.5, and 20 μl of 0.5M EGTA, pH 8.5. The experiment is repeated in the presence and the absence of a test compound. […] Therefore, in the presence of an antagonist test compound, the EC50 would be expected to […].

SMILES	static allodynia in CCI rat model (Field et al 1999) [1]	dynamic allodynia in CCI rat model (Field et al 1999) [2]	static allodynia in STZ rat model (Field et al 1999) [3]	dynamic allodynia in STZ rat model (Field et al 1999) [4]	reversal of CCI-induced pain in rats (Schäfers 2004) (CCI-induced pain in rats)	other results
CC(C)C[C@H](CN)CC(=O)O [Pregabalin]	reverse both static and dynamic allodynia	reverse both static and dynamic allodynia	reverse both static and dynamic allodynia	reverse both static and dynamic allodynia	–	–
Cc1ccc(-c2cc(C(F)(F)F)nn2-c2ccc(S(N)(=O)=O)cc2)cc1 [Celebrex]	–	–	–	–	no significant effect	–
NCC1(CC(=O)O)CCCCC1 [Gabapentin]	reverse both static and dynamic allodynia	reverse both static and dynamic allodynia	reverse both static and dynamic allodynia	reverse both static and dynamic allodynia	–	effect on maintenance of STZ-induced static allodynia [5]: complete reversal; effect on maintenance of STZ-induced dynamic allodynia [6]: complete reversal
CC(C)Cc1ccc(C(C)C(=O)O)cc1 (centres unmarked) [Ibuprofen]	–	–	–	–	no significant effect	–
CN1CC[C@]23c4c5ccc(O)c4O[C@H]2[C@@H](O)C=C[C@H]3[C@H]1C5 [Morphine, reference compound]	reverses static	not dynamic allodynia	–	–	–	analgesic effect of positive control [7]: produced the expected analgesic effect; change of PWLs in both hindpaws ([7]; 30 min post dose): increased the PWLs in both hindpaws over the baseline value of naïve rats
CCCCC[C@H](O)/C=C/[C@H]1C(=O)C[C@H](O)[C@@H]1C/C=C\CCCC(=O)O [PGD2, Prostaglandin D2]	–	–	–	–	–	EC50 (CRTH2 receptor): 15 nM
